Laboratory results as given in US20240165092A1, “USE OF AN OREXIN 2 RECEPTOR AGONIST FOR POST OPERATION RECOVERY” (Takeda Pharmaceutical Limited Company, priority 2021, published 2024).

Columns and labels:
Type in all cases: in vivo, rat
Male Sprague-Dawley rats [1] = experiment: Fentanyl-induced analgesic effects in formalin test; conditions: for Phase I (No. of flinching) / Phase II (No. of flinching): formalin test; for Phase I (No. of flinching): 1 to 11 min; for Phase II (No. of flinching): 16 to 61 min
Male Sprague-Dawley rats [2] = experiment: Time to recovery from isoflurane-induced anesthesia assessed by righting reflex; conditions: for Duration of anesthesia (min) (Mean): isoflurane anesthesia 30 min, vehicle 6.15
Description: Male Sprague-Dawley rats, 8 weeks-age, were purchased from Charles river Japan. To induce and maintain isoflurane anesthesia, rats were placed in a pre-filled anesthesia induction chamber isoflurane 4%. The induction of anesthesia was defined as the rat's inability to right itself into the prone position (loss of righting reflex: LORR) after it was placed in the supine position in a cage. After confirming LORR, rats were exposed to 3% isoflurane using a facemask and maintained for 30 min. Fifteen minutes after LORR, Compound (I) was administered subcutaneously (SC) to rats in a volume of 5 mL/kg of body weight (BW). As vehicle-treated control, 10.5% (w/v) Captisol® (CyDex Pharmaceuticals, KS, USA)/1.5 mM Na2HIPO4 in distilled water was administered to rats. Thirty minutes after confirming LORR, isoflurane inhalation was terminated and time to recovery from LORR was recorded as duration of anesthesia. Body temperature was maintained at 37.0-37.5° C. using a heating pad during and after anesthesia.

Male Sprague-Dawley rats [3] = experiment: Fentanyl (0.1 mg/kg)-induced respiratory depression assessed by whole body plethysmography (WBP)
Male Sprague-Dawley rats [4] = experiment: Fentanyl (0.1 mg/kg)-induced sedation assessed by righting reflex; conditions: for Duration of sedation (min) (Mean): fentanyl 0.1 mg/kg SC, vehicle 88.8
Description: Male Sprague-Dawley rats, 8 weeks-age, were purchased from Charles river Japan. In this study, LORR was used as an indicator of sedation. […] As vehicle-treated control, 10.5% (w/v) Captisol®/1.5 mM Na2HIPO4 in distilled water was administered. The time to recovery from LORR was recorded as duration of sedation.

Male Sprague-Dawley rats [5] = experiment: Time to recovery from propofol-induced anesthesia assessed by righting reflex; conditions: for Duration of anesthesia (min) (Mean): propofol anesthesia 30 min, vehicle 12.8
Description: Male Sprague-Dawley rats, 8 weeks-age, were purchased from Charles river Japan. To induce and maintain propofol anesthesia, a bolus dose of propofol (10 mg/kg) was administered intravenously to rats. After confirming LORR, rats were gently placed in the supine position on a heating pad to maintain body temperature at 37.0-37.5° C. Subsequently, continuous administration of propofol at 60 mg/kg/hr was performed for 30 min. Fifteen minutes after LORR, Compound (I) was administered SC to rats in a volume of 5 mL/kg of BW. As vehicle-treated control, 10.5% (w/v) Captisol®/1.5 mM Na2HPO4 in distilled water was administered to rats. Thirty minutes after confirming LORR, propofol infusion was terminated and time to recovery from LORR was recorded as duration of anesthesia.

Male Sprague-Dawley rats [6] = experiment: Fentanyl-induced analgesic effects in pain model of postoperative skin incision
[7] = Compound (I) 3.0 mg/kg + fentanyl 0.045 mg/kg
[8] = Compound (I) 10 mg/kg + fentanyl 0.045 mg/kg
[9] = Compound (I) 1.0 mg/kg SC 15 min after LORR
[10] = Compound (I) 10 mg/kg SC 15 min before fentanyl 0.1 mg/kg SC, 0 to 30 min after fentanyl

COC(=O)N1CCCC(NS(C)(=O)=O)C1COC1CCC(c2ccccc2)CC1 (stereo not drawn) [Compound (I), methyl 3-((methylsulfonyl)amino)-2-(((4-phenylcyclohexyl)oxy)methyl)piperidine-1-carboxylate]
effect on the analgesic effect of fentanyl (Male Sprague-Dawley rats [1]; formalin pain model, fentanyl 0.045 mg/kg, result in words): did not counteract the analgesic effect of fentanyl
Phase I (No. of flinching) (Male Sprague-Dawley rats [1]; [7]): 5
Phase I (No. of flinching) (Male Sprague-Dawley rats [1]; [8]): 4
Phase II (No. of flinching) (Male Sprague-Dawley rats [1]; [7]): 52
Phase II (No. of flinching) (Male Sprague-Dawley rats [1]; [8]): 45
Duration of anesthesia (min) (Mean) (Male Sprague-Dawley rats [2]; Compound (I) 0.3 mg/kg SC 15 min after LORR): 3.92 min
Duration of anesthesia (min) (Mean) (Male Sprague-Dawley rats [2]; [9]): 3.06 min
time to recovery from isoflurane-induced anesthesia assessed by righting reflex (Male Sprague-Dawley rats [2]; result in words): reduced time to recovery
MV (mL/min) (Mean) (Male Sprague-Dawley rats [3]; [10]): 206 mL/min
RR (breaths/min) (Mean) (Male Sprague-Dawley rats [3]; [10]): 144 breaths/min
TV (mL/stroke) (Mean) (Male Sprague-Dawley rats [3]; [10]): 1.61 mL/stroke
fentanyl-induced respiratory depression (Male Sprague-Dawley rats [3]; result in words): suppressed fentanyl-induced respiratory depression
RR, TV and MV compared to that of vehicle group (Male Sprague-Dawley rats [3]; with fentanyl 0.1 mg/kg, result in words): increased RR, TV and MV
Duration of sedation (min) (Mean) (Male Sprague-Dawley rats [4]; Compound (I) 1.0 mg/kg SC 10 min after fentanyl): 81.3 min
Duration of sedation (min) (Mean) (Male Sprague-Dawley rats [4]; Compound (I) 3.0 mg/kg SC 10 min after fentanyl): 67.0 min
Duration of sedation (min) (Mean) (Male Sprague-Dawley rats [4]; Compound (I) 10 mg/kg SC 10 min after fentanyl): 42.9 min
duration of fentanyl-induced sedation assessed by righting reflex (Male Sprague-Dawley rats [4]; result in words): reduced duration of fentanyl-induced sedation
Duration of anesthesia (min) (Mean) (Male Sprague-Dawley rats [5]; [9]): 11.7 min
Duration of anesthesia (min) (Mean) (Male Sprague-Dawley rats [5]; Compound (I) 3.0 mg/kg SC 15 min after LORR): 6.70 min
Duration of anesthesia (min) (Mean) (Male Sprague-Dawley rats [5]; Compound (I) 10 mg/kg SC 15 min after LORR): 6.00 min
time to recovery from propofol-induced anesthesia assessed by righting reflex (Male Sprague-Dawley rats [5]; result in words): reduced time to recovery
pain threshold 1 hr after the skin incision (Male Sprague-Dawley rats [6]; Compound (I) 3.0 mg/kg SC 15 min before incision + fentanyl 0.03 mg/kg SC): 28.5 g
pain threshold 1 hr after the skin incision (Male Sprague-Dawley rats [6]; Compound (I) 10 mg/kg SC 15 min before incision + fentanyl 0.03 mg/kg SC): 32.2 g
effect on the analgesic effect of fentanyl (Male Sprague-Dawley rats [6]; postoperative skin incision model, fentanyl 0.03 mg/kg, result in words): did not counteract the analgesic effect of fentanyl
